Values of other authors in article PMC6530635, “A Novel Single-Site Mutation in the Catalytic Domain of Protoporphyrinogen Oxidase IX (PPO) Confers Resistance to PPO-Inhibiting Herbicides” (Frontiers in Plant Science, 2019).

System: Amaranthus palmeri MIS-D population
Set-up: method as in Salas-Perez et al., 2017
Settings: MIS-D field population; 1X dose; ref Salas-Perez et al., 2017; cited from earlier work

For `Cc1nn(-c2cc(CC(Cl)C(=O)O)c(Cl)cc2F)c(=O)n1C(F)F` (stereo not shown) [Carfentrazone], the “Frequency of resistant plants” value is listed as 20%.
